The text below walks through data of ChEMBL document CHEMBL5143744, “Discovery of Tenapanor: A First-in-Class Minimally Systemic Inhibitor of Intestinal Na+/H+ Exchanger Isoform 3” (ACS Med Chem Lett, 2022).

Data set [1] is described as follows: Toxicity in Sprague-Dawley rat assessed as gross pathological changes at 30 mg/kg, po administered for 7 days measured on day 8 by necropsy. It counts as organism-based. To be noted: in vivo, 192 h, time 8 day.
The nature of data set [2]: Toxicity in Sprague-Dawley rat assessed as diarrhea at 30 mg/kg, po administered for 7 days. It is filed as organism-based. The following applies: in vivo, 168 h, time 7 day.
A further data set has as its system Rattus norvegicus. The data set can be described thus: In vivo inhibition of NEH3 in Sprague-Dawley rat assessed as reduction in sodium excretion in urine at 0.1 to 3 mg/kg, po administered via gavage measured after 16 hrs by ion chromatography. It counts as functional, organism-based. The following applies: dose 0.1-3 mg/kg.
Data set [3] can be described thus: Drug metabolism in Sprague-Dawley rat at 30 mg/kg, po administered via gavage by LC-MS/MS analysis. It is filed as ADME, organism-based. The following applies: in vivo.
The target of the next data set is hERG (KCNH2) (Homo sapiens, UniProt Q12809). The data set is described as follows: Inhibition of human ERG at 10 uM relative to control. It counts as toxicity.
A short description of data set [4]: Drug metabolism in Sprague-Dawley rat feces at 0.1 mg/kg, po administered via gavage measured after 72 hrs by LC-MS/MS analysis. It is filed as ADME, organism-based. The following applies: in vivo.
Data set [5] can be described thus: Cmax in Sprague-Dawley rat at 30 mg/kg, po administered via gavage by LC-MS/MS analysis. Set-up: dose 30 mg/kg, route po. The following applies: in vivo. It counts as ADME, organism-based.
Data set [6] in a line: Toxicity in Sprague-Dawley rat assessed as change in alanine aminotransferase level at 30 mg/kg, po administered for 7 days measured on day 8. The following applies: in vivo, 192 h, time 8 day. It is filed as organism-based.
Data set [7] can be described thus: In vivo inhibition of NEH3 in Sprague-Dawley rat assessed as increase in fecal water content at 0.1 to 3 mg/kg, po administered via gavage measured after 6 hrs. It counts as functional. Set-up: scale not given: the % may be the effect or the level left. To be noted: dose 0.1-3 mg/kg.
A short description of data set [8]: Toxicity in Sprague-Dawley rat assessed as change in aspartate aminotransferase level at 30 mg/kg, po administered for 7 days measured on day 8. It is filed as organism-based. To be noted: in vivo, 192 h, time 8 day.
The nature of data set [9]: Toxicity in Sprague-Dawley rat assessed as pathological changes at 30 mg/kg, po administered for 7 days measured on day 8 by microscopy. To be noted: in vivo, 192 h, time 8 day. It is filed as organism-based.
The target in data set [10] is T1, Sodium/hydrogen exchanger 3 (Homo sapiens, UniProt P48764).
T1 sequence (P48764 whole entry): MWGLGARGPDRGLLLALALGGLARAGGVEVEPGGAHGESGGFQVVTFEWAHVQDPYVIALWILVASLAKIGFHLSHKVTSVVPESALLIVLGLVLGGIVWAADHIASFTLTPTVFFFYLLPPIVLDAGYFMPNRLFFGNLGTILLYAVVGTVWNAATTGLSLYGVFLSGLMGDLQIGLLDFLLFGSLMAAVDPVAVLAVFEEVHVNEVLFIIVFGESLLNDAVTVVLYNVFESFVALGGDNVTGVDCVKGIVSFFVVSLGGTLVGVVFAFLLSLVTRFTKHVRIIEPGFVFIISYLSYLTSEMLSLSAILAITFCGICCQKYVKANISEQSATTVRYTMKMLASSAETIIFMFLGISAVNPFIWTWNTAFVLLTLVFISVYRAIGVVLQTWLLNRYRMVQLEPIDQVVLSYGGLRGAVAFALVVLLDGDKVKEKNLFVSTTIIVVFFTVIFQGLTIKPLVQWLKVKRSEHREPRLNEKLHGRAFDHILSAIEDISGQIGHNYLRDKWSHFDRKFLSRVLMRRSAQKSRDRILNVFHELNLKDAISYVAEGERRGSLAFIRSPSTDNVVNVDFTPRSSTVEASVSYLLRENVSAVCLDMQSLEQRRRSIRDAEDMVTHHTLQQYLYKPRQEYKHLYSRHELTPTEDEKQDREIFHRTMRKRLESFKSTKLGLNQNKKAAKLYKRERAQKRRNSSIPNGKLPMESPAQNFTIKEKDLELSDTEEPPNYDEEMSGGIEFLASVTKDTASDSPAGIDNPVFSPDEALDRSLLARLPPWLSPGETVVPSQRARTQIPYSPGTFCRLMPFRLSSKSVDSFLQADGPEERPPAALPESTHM
The data set can be described thus: Inhibition of human NHE3 expressed in opossum kidney cells assessed as reduction in Na-HEPES buffer-mediated pH recovery in presence of NEH1 inhibitor ethyl isopropyl amiloride by BCECF-AM dye based fluorescence assay. It is filed as cell-based, Kidney epithelial cell.

Data set [11] can be described thus: Drug recovery in Sprague-Dawley rat feces at 0.1 mg/kg, po administered via gavage measured after 72 hrs by LC-MS/MS analysis. The following applies: faeces, read-out: Drug recovery. It counts as ADME, organism-based.
Data set [12] concerns the target Sodium/hydrogen exchanger 3 (Rattus norvegicus, UniProt P26433). The data set is described as follows: Inhibition of rat NHE3 expressed in opossum kidney cells assessed as reduction in Na-HEPES buffer-mediated pH recovery in presence of NEH1 inhibitor ethyl isopropyl amiloride by BCECF-AM dye based fluorescence assay. It is filed as cell-based, Kidney epithelial cell.

Activity calls are given as the source filed them. The rule behind the calls is not given here. Where only a bound is given, the exact number is not on record here.

Chain of hERG (KCNH2) (Q12809 whole entry): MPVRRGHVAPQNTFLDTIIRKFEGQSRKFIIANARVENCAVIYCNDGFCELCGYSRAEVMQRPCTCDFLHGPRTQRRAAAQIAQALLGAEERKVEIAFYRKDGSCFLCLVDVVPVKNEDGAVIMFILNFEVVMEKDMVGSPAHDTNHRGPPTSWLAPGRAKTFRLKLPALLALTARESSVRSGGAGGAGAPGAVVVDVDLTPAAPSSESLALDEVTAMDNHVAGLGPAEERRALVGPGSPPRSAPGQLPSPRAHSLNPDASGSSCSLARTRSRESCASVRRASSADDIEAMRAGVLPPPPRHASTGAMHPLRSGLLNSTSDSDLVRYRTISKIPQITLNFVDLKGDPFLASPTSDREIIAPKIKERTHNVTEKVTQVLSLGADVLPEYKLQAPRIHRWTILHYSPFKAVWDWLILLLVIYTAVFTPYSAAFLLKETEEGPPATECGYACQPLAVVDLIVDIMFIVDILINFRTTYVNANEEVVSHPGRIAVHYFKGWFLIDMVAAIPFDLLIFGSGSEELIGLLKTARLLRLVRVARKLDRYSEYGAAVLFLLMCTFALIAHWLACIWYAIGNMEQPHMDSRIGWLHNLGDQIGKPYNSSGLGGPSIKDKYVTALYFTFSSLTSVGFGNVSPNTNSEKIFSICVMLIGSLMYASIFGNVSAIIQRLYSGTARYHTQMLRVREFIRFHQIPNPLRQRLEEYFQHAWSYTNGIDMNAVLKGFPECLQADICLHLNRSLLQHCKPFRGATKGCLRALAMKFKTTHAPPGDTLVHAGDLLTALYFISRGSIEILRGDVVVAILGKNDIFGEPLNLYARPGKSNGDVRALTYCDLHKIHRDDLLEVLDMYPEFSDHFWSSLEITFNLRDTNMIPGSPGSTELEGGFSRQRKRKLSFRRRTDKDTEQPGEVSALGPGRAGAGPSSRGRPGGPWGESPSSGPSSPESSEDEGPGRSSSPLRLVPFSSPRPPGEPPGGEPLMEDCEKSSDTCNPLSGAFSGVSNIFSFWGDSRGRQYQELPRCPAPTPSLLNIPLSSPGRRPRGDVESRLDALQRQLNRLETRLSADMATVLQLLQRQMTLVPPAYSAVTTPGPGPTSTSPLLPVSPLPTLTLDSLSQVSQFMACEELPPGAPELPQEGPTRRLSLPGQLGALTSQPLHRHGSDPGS
Chain of Sodium/hydrogen exchanger 3 (Rattus norvegicus, UniProt P26433) (P26433 whole entry): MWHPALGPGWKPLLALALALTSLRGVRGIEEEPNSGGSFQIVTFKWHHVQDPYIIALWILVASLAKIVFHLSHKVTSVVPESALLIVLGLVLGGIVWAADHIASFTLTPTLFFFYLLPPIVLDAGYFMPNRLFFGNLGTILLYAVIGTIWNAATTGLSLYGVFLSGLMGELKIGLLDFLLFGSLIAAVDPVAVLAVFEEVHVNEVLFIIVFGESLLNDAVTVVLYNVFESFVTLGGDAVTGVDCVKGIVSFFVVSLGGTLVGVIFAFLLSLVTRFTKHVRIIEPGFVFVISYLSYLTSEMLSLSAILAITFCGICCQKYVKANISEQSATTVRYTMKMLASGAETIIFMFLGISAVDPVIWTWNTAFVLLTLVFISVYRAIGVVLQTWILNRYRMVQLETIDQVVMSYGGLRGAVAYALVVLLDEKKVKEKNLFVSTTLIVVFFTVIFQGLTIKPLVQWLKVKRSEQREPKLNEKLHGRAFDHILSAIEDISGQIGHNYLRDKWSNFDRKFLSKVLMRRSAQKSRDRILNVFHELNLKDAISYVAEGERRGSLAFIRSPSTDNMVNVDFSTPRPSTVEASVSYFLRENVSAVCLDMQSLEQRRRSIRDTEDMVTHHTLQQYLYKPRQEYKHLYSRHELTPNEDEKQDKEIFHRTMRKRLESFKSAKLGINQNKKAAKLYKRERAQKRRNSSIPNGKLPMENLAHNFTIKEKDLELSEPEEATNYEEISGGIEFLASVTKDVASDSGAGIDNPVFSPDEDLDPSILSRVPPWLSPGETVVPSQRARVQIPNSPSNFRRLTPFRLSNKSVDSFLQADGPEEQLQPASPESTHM

What is called inhibition is the share of the control response that was lost under treatment. The term Cmax denotes the highest concentration seen after dosing. The term IC50 denotes the midpoint of a concentration-inhibition curve. `CN1Cc2c(Cl)cc(Cl)cc2[C@H](c2cccc(S(=O)(=O)NCCOCCOCCNC(=O)NCCCCNC(=O)NCCOCCOCCNS(=O)(=O)c3cccc([C@@H]4CN(C)Cc5c(Cl)cc(Cl)cc54)c3)c2)C1` [TENAPANOR]: the Activity entry in data set [1] is “Non-Toxic”; in data set [2], “Toxic”; in data set [6] it was “Non-Toxic”; in [7], 10%; in data set [8] it was “Non-Toxic”; in [9], “Non-Toxic”. Also, in the data set with Rattus norvegicus, the inhibition result was “Active”. For the same compound, the Drug metabolism entry in data set [3] is given as “Metabolite_Notdetected”; in [4], “Metabolite_Detected”. The compound further showed an inhibition at 10 µM against hERG (KCNH2) of under 50%. In data set [5], this compound came in with a Cmax of under 3 ng/mL. Moreover, the IC50 is 0.501 nM in [10] and 15.8 nM in [12]. Further, in data set [11], the dose excreted at 72 h turned out to be 92%.
